Marks after values point to notes of the source that are not given here.
Columns and labels:
HepG2 cells [1] = experiment: MTT cytotoxicity assay on HepG2 cells; format: cell-based; conditions: Homo sapiens; for cytotoxicity at 100 ppm: 48 h, 100 p.p.m (μg/mL), read-out: % Death Rate at 100 p.p.m (μg/mL) HepG2; for IC50: HepG2, 48 h
Experimental: (§1) MTT-based cell viability assay was carried out to evaluate the antiproliferation potential of the target compounds on HCC cell lines (HepG2 and Huh7). The half maximal inhibitory concentration (IC50) values were calculated against DMSO non-treated HepG2 cells (negative control) and Dox-treated HepG2 cells (positive control). The assay was conducted using 3-(4, 5-di-MethylThiazol-2-yl)-2,5-diphenyl Tetrazolium bromide (MTT) to test cell viability, according to the method described by Mosmann with minor changes. The yellow MTT is reduced in the viable cells to purple formazan. The insoluble formazan is solubilized by DMSO to colored solution measured spectrophotometrically. Briefly, cells were seeded in a 96-well plate at density of 1 × 10^4 cells/well for 24 h in 5% CO2 incubator at 37 °C to allow their adherence. […] After incubation, 20 μL of a 5 mg/mL MTT solution were mixed with the contents of each well, and the plate was incubated for another 4 h. Then, the medium was suctioned, and the wells were washed with PBS. After 2 h of drying, 200 μL of DMSO was added to each well. The plate was set on a shaker to dissolve the formazan crystals. Then, the absorbance was measured spectrophotometrically at 570 nm with a reference wavelength of 630 nm using ELX800 UV universal microplate reader (BioTek Instruments Inc., VT, Santa Clara, CA, USA).
(§2) All experiment conditions were tested in three replicates. The % cell viability was calculated from the following equation: (mean absorbance of treated sample/mean absorbance of negative control sample) × 100. The % death rate = 100 -% cell viability, and the inhibitory concentration of 50% (IC50) was measured from the exponential curve of viability against concentration (dose–response curve).

Huh7 cells = experiment: MTT cytotoxicity assay on Huh7 cells; format: cell-based, human; conditions: for IC50: Homo sapiens, Huh-7, 48 h
Experimental: as §1, §2

[2] = In vitro safety/cell viability MTT assay on normal RPE1 cells; format: cell-based, human; conditions: human, RPE1 cells (noncancerous), normal RPE1 cells, MTT
mice = experiment: In vivo acute (14-day) oral toxicity study; conditions: for S.ALT / S.AST / S.Creatinine / S.D.Bilirubin / S.T.Bilirubin / S.Urea: 14 days after single dose, compounds 250 mg/kg oral, doxorubicin 15 mg/kg I.P; for Survival over the treatment period (14 days) / Physical or abnormal changes (body weight, skin, fur, eyes, behavior, overall appearance): single acute oral dose of 250 mg/kg; for Physical or abnormal changes (body weight, skin, fur, eyes, behavior, overall appearance): 14 days
From the text: GPower 3.0.10 software was used to estimate the sample size needed for the experiment and the number of mice per group but, according to the Organization for Economic Cooperation and Development (OECD) Test Guidelines No. 407 (OECD, 2008 and updated 2017) and under the International Academy of Science’s Guide for the Care and Use of Laboratory Animals, as well as the ARRIVE guidelines, to use the least number of mice per group for the acute single dose oral toxicity test.
Animals were divided randomly into nine groups (5 animals per group). Before the experiment, the body weight (BW) of all mice was recorded. All mice were made to fast for 24 h and treated once (day zero) then carefully monitored for 14 days.
Normal control group: mice received saline orally once;
Negative control group: mice received vehicle (DMSO) orally once;
Positive control group: mice were injected with Dox (15 mg/kg BW, i.p.) once.
Isatin-sulfonamide-derivative-compound-treated groups (2a, 3a, 3d and 4b, 4c and 4d) of mice received 250 mg/kg BW of each orally once.
The animals’ BWs were recorded at the end of the 14 days of observation. Blood samples were collected from the retro-orbital plexus and allowed to clot. Sera were prepared by centrifugation at 4000 rpm for 15 min and then kept frozen at − 80 °C for liver and kidney function tests (LFTs and KFTs). Thereafter, mice were deprived of food overnight, euthanized, and sacrificed by cervical dislocation. Liver and kidney tissues were collected, washed with ice-cold saline, and weighed. Excised weighed livers and kidneys were fixed in a suitable buffer for histological examination.
Liver and kidney tissues were fixed in 10% neutral buffered formaldehyde overnight and then embedded in paraffin, […] in serial grades of alcohols, cleared in xylene, and were subjected to […], where 4 μm thick tissue sections were cut by rotatory microtome. Tissue sections were stained with hematoxylin and eosin (H and E) for histological examination using full HD light microscopic imaging system (Leica Microsystems GmbH, Wetzlar, Germany). Standard procedures for sample fixation and staining were done as previously described.

HepG2 cells [3] = experiment: Annexin V/FITC-PI apoptosis assay; format: cell-based, human; conditions: HepG2, IC50 of the compound, 24 h (method says 48 h)
Experimental: Annexin V/PI double staining kit (eBiosciencesDx) was used to detect apoptotic activity of the selected isatin sulfonamide derivatives. The Annexin V corresponding signal provides a very sensitive marker for cellular apoptosis, while PI was used to detect necrotic or late apoptotic cells, identified by the loss of plasma integrity and loss of nuclear membranes.
Briefly, 1 × 10^5 cells/mL of HepG2 cells were seeded into a 6-well plate and incubated at 37 °C, 5% CO2, overnight. […] After time elapsed, trypsinization of cells was carried out. Washing was done by PBS once, followed by fixation using 70% ethanol. Fixed cells were stored at 4 °C for 2 h, then centrifuged at 500× g for 5 min. Again, cells were washed with PBS prior to staining. An amount of 200 μL of the staining solution (annexin V- fluorescein 5-isothiocyanate (FITC) and PI in binding buffer (10 mM HEPES, 140 mM NaCl, and 2.5 mM CaCl2 at pH 7.4)) were added to the cell suspension and incubated at 37 °C for 20 to 30 min in dark and analyzed with a fluorescence-activated cell sorter (FACS) (BD FACSCalibur, BD Biosciences, California, USA). Data were analyzed using ModFit LT v2.0 (Verity Software House, Topsham, Maine, USA).
These plots were divided into four regions corresponding to: • (1) Viable cells, which are negative to both probes (PI/FITC −/−), • (2) Apoptotic cells, which are PI negative and Annexin positive (PI/FITC −/+), • (3) Late apoptotic cells, which are both PI and Annexin positive (PI/FITC +/+), • (4) Necrotic cells, which are PI positive and Annexin negative (PI/FITC+/−).

## CCOC(=O)/C(C#N)=C1\C(=O)Nc2ccc(S(=O)(=O)N3CCCCC3)cc21 [Compound 2a]
HepG2 cells [1]
  cytotoxicity at 100 ppm: 81.5%
  IC50: 54.6 ± 2 µM
Huh7 cells; 48 h, 100 p.p.m (μg/mL)
  % Death Rate at 100 p.p.m (μg/mL) Huh7: 100 * %
Huh7 cells
  IC50: 40 ± 3.8 µM
[2]
  CC50 at 48 h: 40.3 ± 1.61 µM
  viability at 48 h, 100 p.p.m (μg/mL): 4.4%
mice
  S.ALT: 28.42 ± 0.27 ^^ U/L
  S.AST: 37.11 ± 0.35 ^^ U/L
  S.Creatinine: 0.59 ± 0.04 ^^ mg/dL
  S.D.Bilirubin: 0.16 ± 0.003 ^^ mg/dL
  S.T.Bilirubin: 0.65 ± 0.018 ^^ mg/dL
  S.Urea: 52.24 ± 0.65 ^^ mg/dL
  Survival over the treatment period (14 days): survived
  Physical or abnormal changes (body weight, skin, fur, eyes, behavior, overall appearance): No physical or abnormal changes were observed

## N#C/C(C(N)=O)=C1/C(=O)Nc2ccc(S(=O)(=O)N3CCCCC3)cc21 [Compound 2b]
HepG2 cells [1]
  cytotoxicity at 100 ppm: 10.2%
  IC50: > 100 µM
Huh7 cells
  IC50: > 100 µM

## Nc1cccc(C(=O)CC2(O)C(=O)Nc3ccc(S(=O)(=O)N4CCCCC4)cc32)c1 (centres unmarked) [Compound 3b]
HepG2 cells [1]
  cytotoxicity at 100 ppm: 1.2%
  IC50: > 100 µM
Huh7 cells
  IC50: > 100 µM

## Nc1ccc(C(=O)CC2(O)C(=O)Nc3ccc(S(=O)(=O)N4CCCCC4)cc32)cc1 (centres unmarked) [Compound 3c]
HepG2 cells [1]
  cytotoxicity at 100 ppm: 11.5%
  IC50: > 100 µM
Huh7 cells
  IC50: > 100 µM
HepG2 cells [3]
  %Cell Death Late Apoptosis: 18.08%

## O=C(CC1(O)C(=O)Nc2ccc(S(=O)(=O)N3CCCCC3)cc21)c1ccc(O)cc1 (centres unmarked) [Compound 3d]
HepG2 cells [1]
  cytotoxicity at 100 ppm: 19.5%
  IC50: > 100 µM
Huh7 cells
  IC50: > 100 µM

## Cc1ccc(C(=O)/C=C2\C(=O)Nc3ccc(S(=O)(=O)N4CCCCC4)cc32)cc1 [Compound 4a]
HepG2 cells [1]
  cytotoxicity at 100 ppm: 100%
  IC50: 12 ± 0.4 µM
Huh7 cells
  IC50: > 100 µM
[2]
  CC50 at 48 h: 21.9 ± 1.15 µM
  viability at 48 h, 100 p.p.m (μg/mL): 0%
mice
  S.ALT: 28.14 ± 0.56 ^^ U/L
  S.AST: 36.51 ± 0.15 ^^ U/L
  S.Creatinine: 0.70 ± 0.02 ^^ mg/dL
  S.D.Bilirubin: 0.17 ± 0.004 ^^ mg/dL
  S.T.Bilirubin: 0.72 ± 0.019 ^^ mg/dL
  S.Urea: 55.10 ± 2.96 ^^ mg/dL
  Survival over the treatment period (14 days): survived
  Physical or abnormal changes (body weight, skin, fur, eyes, behavior, overall appearance): No physical or abnormal changes were observed

## O=C1Nc2ccc(S(=O)(=O)N3CCCCC3)cc2/C1=C/C(=O)c1ccc(O)cc1 [Compound 4d]
HepG2 cells [1]
  cytotoxicity at 100 ppm: 100%
  IC50: 13.3 ± 0.75 µM
Huh7 cells
  IC50: 18.8 ± 0.8 µM
[2]
  CC50 at 48 h: 11.9 ± 0.7 µM
  viability at 48 h, 100 p.p.m (μg/mL): 0%
mice
  S.ALT: 30.14 ± 0.93 ^^ U/L
  S.AST: 38.72 ± 1.37 ^#,^ U/L
  S.Creatinine: 0.85 ± 0.03 ^^ mg/dL
  S.D.Bilirubin: 0.18 ± 0.004 ^^ mg/dL
  S.T.Bilirubin: 0.69 ± 0.016 ^^ mg/dL
  S.Urea: 48.18 ± 0.53 ^^ mg/dL
  Survival over the treatment period (14 days): survived
  Physical or abnormal changes (body weight, skin, fur, eyes, behavior, overall appearance): No physical or abnormal changes were observed

Reference: PMC8945686, “Anticancer Effects with Molecular Docking Confirmation of Newly Synthesized Isatin Sulfonamide Molecular Hybrid Derivatives against Hepatic Cancer Cell Lines” (Biomedicines, 2022)
